{
  "source": "ChEMBL document CHEMBL4190368",
  "about": "“Synthesis and antimalarial evaluation of artesunate-polyamine and trioxolane-polyamine conjugates” (Eur J Med Chem, 2017)",
  "key": {"[1]": {"test_system": "Plasmodium falciparum", "experiment": "Antiplasmodial activity against chloroquine sensitive Plasmodium falciparum NF54 assessed as reduction in [3H]-hypoxanthine incorporation incubated for 48 hrs by liquid scintillation counting method", "type": "functional, organism-based"}, "[2]": {"test_system": "Plasmodium berghei", "experiment": "Antiplasmodial activity against GFP-transfected Plasmodium berghei ANKA infected in NMRI mouse assessed as mouse survival at 50 mg/kg/day, ip for 4 days measured up to 30 days", "type": "functional"}, "[3]": {"test_system": "Plasmodium berghei", "experiment": "Antiplasmodial activity against GFP-transfected Plasmodium berghei ANKA infected in NMRI mouse assessed as mouse survival at 50 mg/kg/day, po for 4 days measured up to 30 days", "type": "functional"}, "[4]": {"test_system": "Plasmodium berghei", "experiment": "Antiplasmodial activity against GFP-transfected Plasmodium berghei ANKA infected in NMRI mouse assessed as reduction in parasitaemia at 100 mg/kg/day, po for 4 days measured on 24 hrs after last dose by FACS analysis", "type": "functional", "set-up": "scale not given: the % may be the effect or the level left"}, "[5]": {"test_system": "L6", "experiment": "Cytotoxicity in rat L6 cells assessed as reduction in cell viability incubated for 72 hrs by alamar blue dye based assay", "conditions": "L6, 72 h"}, "[6]": {"test_system": "Plasmodium berghei", "experiment": "Antiplasmodial activity against GFP-transfected Plasmodium berghei ANKA infected in NMRI mouse assessed as reduction in parasitaemia at 50 mg/kg/day, ip for 4 days measured on 24 hrs after last dose by FACS analysis", "type": "functional", "set-up": "scale not given: the % may be the effect or the level left"}, "[7]": {"experiment": "Selectivity index, ratio of IC50 for rat L6 cells to IC50 for chloroquine sensitive Plasmodium falciparum NF54", "type": "toxicity", "conditions": "L6 cells versus Plasmodium falciparum NF54, read-out: Ratio IC50"}},
  "data": [
    {"smiles": "C[C@H]1[C@H](OC(=O)CCC(=O)NCCCN(CCCCN(CCCNC(=O)CCC(=O)O[C@@H]2O[C@@H]3O[C@@]4(C)CC[C@H]5[C@H](C)CC[C@@H]([C@H]2C)[C@@]35OO4)C(=O)OC(C)(C)C)C(=O)OC(C)(C)C)O[C@@H]2O[C@@]3(C)CC[C@H]4[C@H](C)CC[C@@H]1[C@@]24OO3", "values": [
      {"measurement": "IC50", "setting": "[1]", "value": 0.0004, "unit": "µM"},
      {"measurement": "Survival", "setting": "[2]", "value": 30, "unit": "days"},
      {"measurement": "Survival", "setting": "[3]", "value": "16 to 30", "unit": "days"},
      {"measurement": "Activity", "setting": "[4]", "value": 95.7, "unit": "%"},
      {"measurement": "IC50", "setting": "[5]", "value": 12.1, "unit": "µM"},
      {"measurement": "Activity", "setting": "[6]", "value": 99.8, "unit": "%"},
      {"measurement": "selectivity ratio", "setting": "[7]", "value": 30200}
    ]}
  ]
}
